Experimental data from patent US11135340B2, “Compositions and methods for preparation of composite polymer coatings on medical implants, and their use for co-delivery of multiple antimicrobial agents” (THE JOHNS HOPKINS UNIVERSITY, priority 2016, dated 2021).
Where two headings read alike, the source gives them in different places.

Tests used:
[1] = system: XEN36; test: MIC of XEN36 for each antibiotic; type: cell-based, Staphylococcus aureus; settings: S. aureus XEN36
[2] = system: S. aureus bioluminescent strain Xen36; test: Mouse model of prosthetic joint infection: in vivo bioluminescence imaging and CFU; design: species or system mice; settings: intravenous prophylaxis 110 mg/kg at −1 and 16 hours
[3] = system: S. aureus; test: In vitro zone of inhibition assay of coated K-wires; type: cell-based, Staphylococcus aureus; settings: any of the storage conditions vs freshly prepared coatings
Excerpt: A zone of inhibition assay was used as an additional assay to evaluate the in vitro release of antibiotic(s) from the composite coating. Tryptic soy agar bacterial plates were inoculated with S. aureus bacteria cells to yield a bacterial lawn after overnight culture. After bacterial inoculation and before culturing the plates, two identical titanium K-wires loaded with either 10 w/w % Lin, 10 w/w % Van, or 10 w/w % Dap alone, or in combination with Rif were placed in two separate areas on the plate. After culturing the plates at 37° C. for 24 hours, the antimicrobial activity of the eluded antibiotic(s) into the agar was measured as a zone of inhibition (diameter [mm]) of the bacterial growth around the K-wire.
Long-term efficacy of the antimicrobial activity was tested by storing electrospun pins at room temperature for 6 weeks, −20° C. for 6 weeks, and −80° C. for 8 months. Coated pins were protected from light during storage. These pins were then used in the same zone of inhibition assay as described hereinabove. These antimicrobial results were further confirmed with a two-week in vitro release study to determine release kinetics after storage.
Tryptic soy agar (TSA) bacterial plates were inoculated with S. aureus to yield a bacterial lawn after overnight culture. Before culturing the plates, two titanium K-wires each loaded with the same combination of antibiotics from each set were placed in two separate areas on the plate. After culturing at 37° C. for 24 hours, the zone of inhibition (ZOI) (diameter/mm) of bacterial growth were measured.

[4] = In vitro release of antibiotics from composite coatings on titanium K-wire implants; type: physicochemical; settings: for release kinetics after storage: coated pins stored 6 weeks room temperature, 6 weeks −20° C. or 8 months frozen, vs fresh; for Day 1 release of Gentamicin: of total loading
Experimental: The release rate of the polymer composite film was measured by HPLC. Drug release studies were conducted using coated pins created with the same loading parameters as those used for later in vivo testing (10% (w/w) drug combinations) electrospun for 60 seconds at injection rates of 0.5 mL/h from each needle. Release rate of antibiotics from the composite polymer coating was characterized by placing coated pins in 200 μL pH 7.4 PBS buffer and incubating at 37° C. in an aluminum film-covered incubator to prevent possible light-induced drug degradation. Release media was changed at fixed time points over a period of two weeks and stored in a −20° C. freezer until analysis. Drug concentrations in release media for each day were determined via reverse-phase HPLC using a C-18 column in an Alliance HPLC system and Waters 2996 PDA detector. The mobile phase was a mixture of acetonitrile and water both mixed with 0.1% TFA acid, which was run at a gradient from (15%/85%) to (40%/60%) for a total runtime of 15 minutes per sample for the elution of Van/Rif and Lin/Rif drug loading groups. Elution of the Dap/Rif loading group was conducted using a mobile phase of (49%/51%) of acetonitrile and water both mixed with 0.1% TFA acid for a total run time of 11 minutes per sample. Concentrations of the drugs were quantified using wavelengths of 343 nm for Rif, 254 nm for Lin, 280 nm for Van and 223 nm for Dap using prepared standard curves for all three drugs. […] Quantification was performed through the derivatization of Gentamicin with ninhydrin at 95° C. for 15 minutes and detection with a Biotek Synergy2 plate reader.
Drug release studies were conducted using coated pins created with the same loading parameters as detailed above. Release kinetics of antibiotics from the composite coating were characterized by placing coated pins in 200 μL of phosphate buffer saline (PBS, pH 7.4) at 37° C. Release media was changed daily over a period of two weeks and stored at −20° C. until analysis. Drug concentrations in release media were measured on days 1, 2, 3, 5, 7, 10 and 14 using a Waters Alliance 2690 HPLC system (Waters Corporation, Milford, Mass.) equipped with an Accucore RP-MS C18 column (100 mm×2.1 mm; Thermo Fisher Scientific) and a Waters 2996 PDA detector. The elution was carried out with a mobile phase of water and acetonitrile both mixed with 0.1% TFA at a flow rate of 1 mL/min at ambient temperature using a linear gradient elution program of 85% water to […] in 15 minutes. Concentrations of the drugs were quantified using wavelengths for Van (280 nm), Lin (254 nm), Dap (224 nm) and Rif (263 nm).

[5] = In vivo release kinetics of ICG from PCL coating by fluorescence imaging; design: species or system mice; settings: ICG loaded PCL coating on K-wire in mouse femur
Excerpt: FIG. 9A and FIG. 9B show in vivo release kinetics as measured by PCL coatings impregnated with a near-infrared (NIR) fluorescent dye Indocyanine green (ICG) as a surrogate for the antibiotic loaded coatings.
The near-infrared (NIR) fluorescence imaging dye indocyanine green (ICG) was used as a surrogate model for drug loading and release in an established mouse model (described in Example 4) to monitor the in vivo release kinetics from PCL coating (FIG. 9A and FIG. 9B). ICG loaded PCL was coated onto titanium K-wire (described in Example 1). The implants were surgically placed in a retrograde fashion with 1 mm protruding into the joint space of mice. The release of ICG was measured by its fluorescence intensity at different time points.

[6] = Staphylococcus aureus, read-out: MIC

Q: Which results are given for `CN[C@H](CC(C)C)C(=O)N[C@H]1C(=O)N[C@@H](CC(N)=O)C(=O)N[C@H]2C(=O)N[C@H]3C(=O)N[C@H](C(=O)N[C@H](C(=O)O)c4cc(O)cc(O)c4-c4cc3ccc4O)[C@H](O)c3ccc(c(Cl)c3)Oc3cc2cc(c3O[C@@H]2O[C@H](CO)[C@@H](O)[C@H](O)[C@H]2O[C@H]2C[C@](C)(N)[C@H](O)[C@H](C)O2)Oc2ccc(cc2Cl)[C@H]1O` [Van, vancomycin]?
A: MIC [1, 6]: 0.5 µg/mL; BLI signals [2]: decreased BLI signals; clearance of infection (CFU from bone/joint tissue and implants) [2]: the infection was not cleared; antimicrobial activity (zone of inhibition) after storage [3]: no significant loss of antimicrobial activity; release kinetics after storage [4]: no difference in the release kinetics

Q: For Gentamicin, which MIC [1] is on record?
A: roughly 10 μg/mL

Q: And the Gentamicin release profile ([4]; 50:50 PLGA)?
A: sustained release

Q: And the Gentamicin release profile ([4]; 75:25 PLGA)?
A: only a burst release

Q: What about the “release of Gentamicin above the MIC” value ([4]; controlled by polymer choice (PLA:PGA ratio of PLGA)) of the same molecule?
A: 2 to 14 days

Q: And the “Day 1 release of Gentamicin” value ([4]; PLGA nanofibers alone)?
A: 80%

Q: What about the “Day 1 release of Gentamicin” value ([4]; PLGA nanofibers embedded in PCL film layer) of the same molecule?
A: less than 45%

Q: What about the “Gentamicin MIC concentration sustained” value ([4]; release from PLGA nanofibers of composite coating, FIG. 11A) of the same molecule?
A: up to 14 days

Q: Which results are given for `CC(=O)NC[C@H]1CN(c2ccc(N3CCOCC3)c(F)c2)C(=O)O1` [Lin, linezolid]?
A: MIC [1, 6]: 2 µg/mL; antimicrobial activity (zone of inhibition) after storage [3]: no significant loss of antimicrobial activity; release kinetics after storage [4]: no difference in the release kinetics

Q: With `CCCCCCCCCC(=O)N[C@@H](Cc1c[nH]c2ccccc12)C(=O)N[C@H](CC(N)=O)C(=O)N[C@@H](CC(=O)O)C(=O)N[C@@H]1C(=O)NCC(=O)N[C@@H](CCCN)C(=O)N[C@@H](CC(=O)O)C(=O)N[C@H](C)C(=O)N[C@@H](CC(=O)O)C(=O)NCC(=O)N[C@H](CO)C(=O)N[C@@H]([C@H](C)CC(=O)O)C(=O)N[C@@H](CC(=O)c2ccccc2N)C(=O)O[C@@H]1C` [Dap, daptomycin] as the molecule, how does the MIC [1, 6] read?
A: 0.25 µg/mL

Q: What about the “antimicrobial activity (zone of inhibition) after storage” value [3] of the same molecule?
A: no significant loss of antimicrobial activity

Q: And the “release kinetics after storage” value [4]?
A: no difference in the release kinetics

Q: With `CC1(C)C(/C=C/C=C/C=C/C=C2\N(CCCCS(=O)(=O)O)c3ccc4ccccc4c3C2(C)C)=[N+](CCCCS(=O)(=O)[O-])c2ccc3ccccc3c21` [ICG, indocyanine green] as the molecule, how does the “duration of ICG release” value [5] read?
A: over two weeks

Q: What about the “peak dissolution of ICG” value [5] of the same molecule?
A: 1 days

Q: For `CO[C@H]1/C=C/O[C@@]2(C)Oc3c(C)c(O)c4c(O)c(c(/C=N/N5CCN(C)CC5)c(O)c4c3C2=O)NC(=O)/C(C)=C\C=C\[C@H](C)[C@H](O)[C@@H](C)[C@@H](O)[C@@H](C)[C@H](OC(C)=O)[C@@H]1C` [Rif, Rifampin], which MIC [1, 6] is on record?
A: 0.5 µg/mL

Q: And the “antimicrobial activity (zone of inhibition) after storage” value [3]?
A: no significant loss of antimicrobial activity

Q: What about the “release of Rif out of the composite film coating after storage (reduced or not)” value ([4]; pins stored at −20° C.) of the same molecule?
A: not when the pins were stored at −20 °C

Q: And the “release of Rif out of the composite film coating after storage” value ([4]; storage at room temperature for six weeks)?
A: reduced

Q: And the “Rif remains above the MIC” value ([4]; tuned by PCL molecular weight or PCL layer thickness)?
A: 2 to 5 days
